Laboratory results published in PMC10538376 (Journal of the American Chemical Society, 2023).

Legend:
[1] = test system: Ac2-L-Lys-D-Ala-D-Lac (33); assay: Model ligand binding, ligand of vancomycin-resistant organisms
[2] = test system: VanA vancomycin-resistant E. faecium (VRE); assay: In vitro antimicrobial activity, VanA VRE; assay type: cell-based; conditions: comparator named in value
[3] = test system: methicillin-susceptible S. aureus (MSSA); assay: In vitro antimicrobial activity, MSSA; assay type: cell-based
[4] = test system: methicillin-resistant S. aureus (MRSA); assay: In vitro antimicrobial activity, MRSA; assay type: cell-based
[5] = 30 vs CBP-vancomycin, 31 vs G3,CBP-vancomycin

Row | Substance | Ka, binding to model ligand 33 [1] | fold less effective binding of 33 than of Ac2-L-Lys-D-Ala-D-Ala [1] | antimicrobial activity against VanA VRE, result in words [2] | fold improvement of activity relative to 1 [3] | activity compared with the corresponding vancomycin derivative, in words [3, 5] | fold improvement of activity relative to 1 [4] | activity compared with the corresponding vancomycin derivative, in words [4, 5]
1 | 2e,6e-dichlorovancomycin [Compound 1] | < 470 M⁻¹ | 1000 fold | inactive |  |  |  | 
2 | vancomycin [reference compound] |  |  | inactive |  |  |  | 
3 | CBP-tetrachlorovancomycin [Compound 30] |  |  | comparable to CBP-vancomycin | 50 fold | indistinguishable | 50 fold | indistinguishable
